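Grown in 96-well plates, cells were treated for 48 hours with each compound at five concentrations. Insufficient inhibition: endpoint recorded as highest concentration tested. TGI denotes the concentration required for complete inhibition of growth.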

Holding throughout (assay): NCI anticancer screen, dose series, 48 h
For assay [1], the system named is A549 NSCLC.
The test system of assay [2] is HCC-2998 colon.
Assay [3] relates to HL-60(TB) leukemia.
Assay [4] relates to HT29 colon.
Assay [5] relates to OVCAR-3 ovarian.
Assay [6] has as its system RPMI-8226 leukemia.
Assay [7] deals with SF-295 CNS.
Assay [8] deals with SK-MEL-2 melanoma.
Assay [9] deals with SNB-19 CNS.
The subject of assay [10] is SNB-75 CNS.
For assay [11], the system named is SW-620 colon.
Assay [12] relates to U251 CNS.
Assay [13] relates to UACC-62 melanoma.
In assay [14] the test system is SK-MEL-28 melanoma.
In assay [15] the test system is BT-549 breast.
In assay [16] the test system is MDA-MB-231 breast.
Assay [17] deals with NCI/ADR-RES ovarian.

As to `NC(=S)N/N=C(/CCN1CCCC1)CC(C1=C(O)C2=CCCCC2OC1=O)c1ccccc1` (configuration not stated), the TGI in [1], in assay [2], in [3], in [4], in [5] and in [6] was greater than 100 µM each time. Also, the TGI in assay [7], in assay [8], in [9], in assay [10], in assay [11] and in [12] was greater than 100 µM each time. The compound further returned a TGI in assay [13] greater than 100 µM.
Regarding `CC(C)C1COC(C(C)(C)C2=N[C@@H](C(C)C)CO2)=N1` (some centres not stated), the TGI in [1], in assay [2], in [3], in assay [4], in assay [5] and in assay [6] was greater than 100 µM in each case. In addition, the TGI in assay [7], in assay [8], in [14], in assay [9], in assay [10] and in assay [11] was greater than 100 µM each time. The TGI in [12] and in [13] was greater than 100 µM throughout.
`Cc1ccc([N+](=O)[O-])cc1NC(=O)/C(CC(=O)c1sc(C(N)=S)nc1C)=N\N`: the TGI in [1] is greater than 100 µM; in [2] it was greater than 100 µM; in assay [3], greater than 100 µM; in [4] it was greater than 100 µM; in [5], 80.7 µM; in [6] it was greater than 100 µM. Moreover, the TGI in assay [7], in assay [8], in assay [14], in assay [9], in [10] and in [11] was greater than 100 µM throughout. Moreover, the TGI in [12] and in assay [13] was greater than 100 µM each time.
On to `COc1ccc(C2S/C(=C\c3ccc([N+](=O)[O-])cc3)C(=O)N2NC(=O)Cc2ccccc2)cc1` (configuration not stated), for which the TGI in assay [1], in assay [3], in assay [4], in assay [6], in assay [7] and in [8] was greater than 100 µM throughout. Moreover, the TGI in [14], in assay [10], in assay [11], in assay [12] and in [13] was greater than 100 µM throughout.
In the case of `CN(C)CCSC(=Nc1ccccc1)n1cccc1`, the TGI in [1], in assay [3], in assay [4], in assay [5], in [6] and in [7] was greater than 100 µM in each case. The TGI in [8] is greater than 100 µM; in assay [14], greater than 100 µM; in assay [9], greater than 100 µM; in [10], 96.4 µM; in [11], greater than 100 µM; in assay [12], greater than 100 µM. This compound had a TGI in [13] greater than 100 µM.
Take `COc1ccc(/C=N/NC(=O)CSc2nc(-c3ccccc3)c(-c3ccccc3)[nH]2)cc1OC`: the TGI was greater than 100 µM in assay [1]; 42.3 µM in [3]; 60.3 µM in [4]; 39.7 µM in [5]; 51.8 µM in assay [6]; 55.9 µM in [7]. For the same compound, the TGI in [8] is 39.1 µM; in assay [14], 89.8 µM; in assay [9] it was greater than 100 µM; in assay [10], 77 µM; in [11] it was greater than 100 µM; in assay [12], 57.8 µM. For the same compound, the TGI in assay [13] amounted to 40.5 µM.
In the case of `COc1cc2c(cc1OC)C(Cc1cc(Br)c(OC)c(OC)c1)=[N+](C)CC2`, the TGI in assay [1], in [2], in assay [3], in assay [4], in assay [5] and in assay [6] was greater than 100 µM throughout. Besides, the TGI in [7], in assay [8], in [14], in assay [9], in assay [10] and in assay [11] was greater than 100 µM throughout. Further, the TGI in [12] and in assay [13] was greater than 100 µM throughout.
Consider `COC(=O)[C@H]1C2CC[C@@H]3C45C[C@@H](c6ccoc6)O[C@@H]4O[C@@H](O2)C31CCC5C` (some centres not stated), for which the TGI in assay [1], in assay [2], in assay [3], in assay [4], in [5] and in assay [6] was greater than 100 µM each time. The TGI in [7], in [8], in assay [9], in assay [11], in [12] and in assay [13] was greater than 100 µM each time.
For `N#CC(C(=S)Nc1ccccc1)=C1Nc2ccccc2N1`, the TGI in assay [1], in [2], in [3], in assay [5], in [6] and in assay [8] was greater than 10 µM in each case. For the same compound, the TGI in assay [14], in assay [9], in [10], in [11], in assay [12] and in assay [13] was greater than 10 µM each time.
As to `COc1ccc(-n2nnc3c(C#N)c(C)c(-c4ccccc4)n3c2=O)cc1`, the TGI in assay [1] was greater than 38.8 µM; in [15], greater than 100 µM; in [2], greater than 33.2 µM; in [4], greater than 100 µM; in assay [16] it was greater than 79.1 µM; in assay [17], 21.1 µM. Also, the TGI was 44.6 µM in assay [5]; greater than 100 µM in [6]; greater than 27.5 µM in assay [7]; greater than 100 µM in assay [8]; greater than 100 µM in assay [14]; greater than 21.6 µM in assay [9]. Also, the TGI in assay [10] is greater than 29.2 µM; in assay [11], greater than 100 µM; in assay [12] it was greater than 41.5 µM; in [13] it was greater than 100 µM.
